Experimental data reported in US20230399312A1, “SUBSTITUTED PYRIMIDINES AND METHODS OF USE” (THERAVANCE BIOPHARMA R&D IP, LLC, priority 2020, published 2023).

Key:
[1] = test system: TGF-β-stimulated SMAD3 phosphorylation in BEAS-2B cells; experiment: Cellular ALK5 potency assay, inhibition of TGF-β stimulated pSMAD3 formation in BEAS-2B cells; assay type: cell-based; conditions: Homo sapiens, pSMAD3, TGF-β 10 ng/mL, read-out: BEAS2B pIC50 (converted)
How it was run: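 Cells were seeded overnight, rinsed into HEPES/BSA-supplemented HBSS, and dosed with serially diluted compound for 1 h at 37 °C, 5% CO2. TGF-β stimulation (10 ng/mL final) followed for 30 min, then lysis and AlphaLISA pSMAD3 measurement; potency reported as pIC50.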

[2] = target: T1, recombinant human ALK5 (TGF-βR1) protein (Homo sapiens, UniProt P36897); experiment: Biochemical ALK5 (TGF-βR1) assay to measure pKi (LANCE Ultra ULight kinase assay); conditions: apparent pKi, converted from pIC50 by Cheng-Prusoff
T1 construct: purchased Life Technologies PR9075A
T1 sequence (P36897 34-503): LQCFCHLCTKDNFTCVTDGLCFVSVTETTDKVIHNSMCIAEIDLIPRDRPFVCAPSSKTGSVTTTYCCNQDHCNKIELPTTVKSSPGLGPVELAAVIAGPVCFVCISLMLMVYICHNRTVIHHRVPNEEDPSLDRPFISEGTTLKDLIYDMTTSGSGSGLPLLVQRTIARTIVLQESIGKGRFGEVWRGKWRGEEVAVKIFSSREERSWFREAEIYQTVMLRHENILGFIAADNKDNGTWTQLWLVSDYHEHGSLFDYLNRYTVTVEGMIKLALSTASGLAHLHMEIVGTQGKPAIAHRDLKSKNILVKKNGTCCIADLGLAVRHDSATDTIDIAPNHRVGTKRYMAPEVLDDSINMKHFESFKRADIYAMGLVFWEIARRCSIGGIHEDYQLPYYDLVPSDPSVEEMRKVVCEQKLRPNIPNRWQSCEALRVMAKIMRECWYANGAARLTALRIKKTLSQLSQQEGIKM
How it was run: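 Enzyme preincubated with compound for 60 min at room temperature, then reacted with ATP (125 μM as 5× stock) for 60 min at 37 °C. Stopped with EDTA plus Eu-anti-phospho-Topoisomerase 2-alpha (Thr1342) antibody and read by TR-FRET at 665 nm. pIC50 from a 4-parameter fit, converted to pKi by Cheng-Prusoff.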

Structure (SMILES)	Ki [2]	IC50 [1]
Cc1cccc(-c2nccc(Nc3ccnc(Nc4ccc(N5CCNCC5)cn4)n3)n2)n1 [Compound 121, N4-(2-(6-methylpyridin-2-yl)pyrimidin-4-yl)-N2-(5-(piperazin-1-yl)pyridin-2-yl)pyrimidine-2,4-diamine]	0.398 to 3.16 nM	25.1 to 158 nM
Cc1cccc(-c2nccc(Nc3ccnc(Nc4ncc(C(=O)OC5CNC5)s4)n3)n2)n1 [Compound 325, azetidin-3-yl 2-[[4-[[2-(6-methyl-2-pyridyl)pyrimidin-4-yl]amino]pyrimidin-2-yl]amino]thiazole-5-carboxylate]	3.98 to 31.6 nM	25.1 to 158 nM
Cc1cccc(-c2nccc(Nc3ccnc(Nc4ccc(N5CCOCC5)cc4F)n3)n2)n1 [Compound 502, N2-(2-fluoro-4-morpholino-phenyl)-N4-[2-(6-methyl-2-pyridyl)pyrimidin-4-yl]pyrimidine-2,4-diamine]	3.98 to 31.6 nM	25.1 to 158 nM
Cc1cccc(-c2nccc(Nc3ccnc(Nc4cccc(NC(=O)NC5CCNC5)c4)n3)n2)n1 (centres unmarked) [Compound 168, 1-[3-[[4-[[2-(6-methyl-2-pyridyl)pyrimidin-4-yl]amino]pyrimidin-2-yl]amino]phenyl]-3-pyrrolidin-3-yl-urea]	0.0398 to 0.316 nM	25.1 to 158 nM
Cc1nc(-c2nccc(Nc3ccnc(Nc4ccc(N5CCOCC5)cc4)n3)n2)ccc1F [Compound 354, N4-[2-(5-fluoro-6-methyl-2-pyridyl)pyrimidin-4-yl]-N2-(4-morpholinophenyl)pyrimidine-2,4-diamine]	0.398 to 3.16 nM	25.1 to 158 nM
Cc1cccc(-c2nccc(Nc3ccnc(Nc4cncc(CN5CC(C(=O)O)C5)c4)n3)n2)n1 [Compound 603, 1-[[5-[[4-[[2-(6-methyl-2-pyridyl)pyrimidin-4-yl]amino]pyrimidin-2-yl]amino]-3-pyridyl]methyl]azetidine-3-carboxylic acid]	0.0398 to 0.316 nM	1580 to 10000 nM
Cc1cccc(-c2nccc(Nc3ccnc(Nc4ncc(C(=O)OC[C@H]5CCCN5)s4)n3)n2)n1 [Compound 592, [(2R)-pyrrolidin-2-yl]methyl 2-[[4-[[2-(6-methyl-2-pyridyl)pyrimidin-4-yl]amino]pyrimidin-2-yl]amino]thiazole-5-carboxylate]	3.98 to 31.6 nM	25.1 to 158 nM
Cc1cccc(-c2nccc(Nc3ccnc(Nc4cnc(N5CCNCC5)nc4)n3)n2)n1 [Compound 86, N4-(2-(6-methylpyridin-2-yl)pyrimidin-4-yl)-N2-(2-(piperazin-1-yl)pyrimidin-5-yl)pyrimidine-2,4-diamine]	0.398 to 3.16 nM	200 to 1260 nM
Cc1cccc(-c2nccc(Nc3ccnc(Nc4ccc(CN5CCC(C(=O)O[C@@H]6CCN(C)C6)CC5)cc4)n3)n2)n1 [Compound 414, (R)-1-methylpyrrolidin-3-yl 1-(4-((4-((2-(6-methylpyridin-2-yl)pyrimidin-4-yl)amino)pyrimidin-2-yl)amino)benzyl)piperidine-4-carboxylate]	0.0398 to 0.316 nM	25.1 to 158 nM
Cc1cccc(-c2nccc(Nc3ccnc(Nc4ccc(C5=CCNCC5)cc4)n3)n2)n1 [Compound 193, N4-[2-(6-methyl-2-pyridyl)pyrimidin-4-yl]-N2-[4-(1,2,3,6-tetrahydropyridin-4-yl)phenyl]pyrimidine-2,4-diamine]	0.0398 to 0.316 nM	≤ 20 nM
Cc1cccc(-c2nccc(Nc3ccnc(Nc4ccc(CN5CCCC(C(=O)NCC6CNC6)C5)cc4)n3)n2)n1 (centres unmarked) [Compound 495, N-(azetidin-3-ylmethyl)-1-[[4-[[4-[[2-(6-methyl-2-pyridyl)pyrimidin-4-yl]amino]pyrimidin-2-yl]amino]phenyl]methyl] piperidine-3-carboxamide]	0.0398 to 0.316 nM	25.1 to 158 nM
Cc1cccc(-c2nccc(Nc3ccnc(Nc4nc(CN5CCN[C@@H](CO)C5)cs4)n3)n2)n1 [Compound 329, [(2R)-4-[[2-[[4-[[2-(6-methyl-2-pyridyl)pyrimidin-4-yl]amino]pyrimidin-2-yl]amino]thiazol-4-yl]methyl]piperazin-2-yl]methanol]	0.398 to 3.16 nM	25.1 to 158 nM
Cc1cccc(-c2nc(Nc3ccnc(Nc4ccc(NC5CCNC5)cc4)n3)c3cccn3n2)n1 (centres unmarked) [Compound 1041, N4-[2-(6-methyl-2-pyridyl)pyrrolo[2,1-f][1,2,4]triazin-4-yl]-N2-[4-(pyrrolidin-3-ylamino)phenyl]pyrimidine-2,4-diamine]	0.0398 to 0.316 nM	25.1 to 158 nM

More lines, main results first:

Ki [2]	Structure (SMILES)	IC50 [1]
0.398 to 3.16 nM	Cc1cccc(-c2nccc(Nc3ccnc(Nc4ccc(-c5cnn(C(C)C)c5)cc4)n3)n2)n1 [Compound 425, N2-[4-(1-isopropylpyrazol-4-yl)phenyl]-N4-[2-(6-methyl-2-pyridyl)pyrimidin-4-yl]pyrimidine-2,4-diamine]	25.1 to 158 nM
0.0398 to 0.316 nM	COC(=O)C1CCCN(c2ccc(Nc3nccc(Nc4ccnc(-c5cccc(C)n5)n4)n3)cc2)C1 (centres unmarked) [Compound 83, methyl 1-[4-[[4-[[2-(6-methyl-2-pyridyl)pyrimidin-4-yl]amino]pyrimidin-2-yl]amino]phenyl]piperidine-3-carboxylate]	25.1 to 158 nM
≤ 0.0316 nM	Cc1cccc(-c2nccc(Nc3ccnc(Nc4ccc(N5CCN(C)CC5)cc4)n3)n2)n1 [Compound 153, N2-[4-(4-methylpiperazin-1-yl)phenyl]-N4-[2-(6-methyl-2-pyridyl)pyrimidin-4-yl]pyrimidine-2,4-diamine]	25.1 to 158 nM
0.0398 to 0.316 nM	Cc1cccc(-c2nccc(Nc3ccnc(Nc4ccc5c(c4)NCCC5)n3)n2)n1 [Compound 225, N4-[2-(6-methyl-2-pyridyl)pyrimidin-4-yl]-N2-(1,2,3,4-tetrahydroquinolin-7-yl)pyrimidine-2,4-diamine]	25.1 to 158 nM
≤ 0.0316 nM	Cc1cccc(-c2nccc(Nc3ccnc(Nc4ccc5c(c4)CCN(C(C)C)CC5)n3)n2)n1 [Compound 223, N2-(3-isopropyl-2,3,4,5-tetrahydro-1H-benzo[d]azepin-7-yl)-N4-(2-(6-methylpyridin-2-yl)pyrimidin-4-yl)pyrimidine-2,4-diamine]	25.1 to 158 nM
0.0398 to 0.316 nM	Cc1cccc(-c2nccc(Nc3ccnc(Nc4ccc(CN5C[C@@H](C)N[C@@H](C)C5)cc4)n3)n2)n1 [Compound 240, N2-[4-[[(3R,5S)-3,5-dimethylpiperazin-1-yl]methyl]phenyl]-N4-[2-(6 methyl-2-pyridyl)pyrimidin-4-yl]pyrimidine-2,4-diamine]	25.1 to 158 nM
0.0398 to 0.316 nM	Cc1cccc(-c2nccc(Nc3ccnc(Nc4ccc(NS(=O)(=O)N5CCNCC5)cc4)n3)n2)n1 [Compound 93, N-[4-[[4-[[2-(6-methyl-2-pyridyl)pyrimidin-4-yl]amino]pyrimidin-2-yl]amino]phenyl]piperazine-1-sulfonamide]	200 to 1260 nM
0.0398 to 0.316 nM	Cc1cccc(-c2nccc(Nc3ccnc(Nc4ccc(N5CCC(NCC(C)C)CC5)cc4)n3)n2)n1 [Compound 194, N2-[4-[4-(isobutylamino)-1-piperidyl]phenyl]-N4-[2-(6-methyl-2-pyridyl)pyrimidin-4-yl]pyrimidine-2,4-diamine]	25.1 to 158 nM
0.398 to 3.16 nM	COCCc1ccc(Nc2nccc(Nc3ccnc(-c4cccc(C)n4)n3)n2)cc1 [Compound 401, N2-[4-(2-methoxyethyl)phenyl]-N4-[2-(6-methyl-2-pyridyl)pyrimidin-4-yl]pyrimidine-2,4-diamine]	25.1 to 158 nM
